Assay results reported in publication doi:10.1101/2021.06.08.447613v1 (biorxiv, 2021).

Molecular target: M^Pro (SARS-CoV-2 main protease) (Severe acute respiratory syndrome coronavirus 2, UniProt P0DTD1)
Assay: fluorogenic peptide substrate cleavage, […] min preincubation
Assay type: biochemical
Details: pH 7.6, 37 °C, 50 nM enzyme, 10 μM substrate

CCN(CC)CCCC(C)Nc1ccnc2cc(Cl)ccc12 (stereo not shown) [chloroquine]
% activity retained at 16 μM: 84%
